# Results reported in publication PMC9386018, “A lymphatic-absorbed multi-targeted kinase inhibitor for myelofibrosis therapy” (Nature Communications, 2022).
# Where “and” joins values, the source holds several entries; their conditions need not be identical. Equal entries are not always repeated.
# Legend:
# [1] = target: MEK1 (Homo sapiens, UniProt Q02750); assay: Target kinase 10-point inhibition assay, MEK1; assay type: biochemical; details: replicates
# Source text: The average percent kinase inhibition from replicate data was ranked low to high, converted to a compatible identifier format, then input into Coral Human Kinome Visualization software for presentation analysis. […] Scaling of evolutionary distance for PI kinases is only relative and is based on literature analysis[62],[63]. Average percent kinome inhibition values from replicate data are supplied in Source Data file. […] Corrected data was normalized to vehicle treated control values, and dose response percent kinase activity was analyzed by non-linear regression for determination of IC50 values.
# [2] = test system: pERK1/2 (pT202/pY204) in splenocytes; assay: MPL^W515L MF mouse model: pERK1/2 in splenocytes by flow cytometry; assay type: in vivo; details: MPL^W515L mice, oral 400 mg kg^−1 daily, 28 d
# Protocol: The human megakaryoblastic cell line, SET-2 (ATCC), was maintained in RPMI 1640 supplemented with 20% FBS and incubated for 16 h at 10^6 cells mL^−1 with LP-182 or vehicle (DMSO; dimethyl sulfoxide), then washed in ice-cold PBS, and collected for flow cytometry analysis. Single-cell suspensions of mouse spleen were prepared from MPL^W515L MF mice (below) in RPMI 1640 supplemented with 5% FCS. Red blood cells were lysed by ammonium chloride-mediated red cell lysis (RCL) buffer and passed through a nylon mesh, and then cells were counted. For intracellular phospho-protein staining, SET-2 or spleen cells were fixed and then permeabilized using BD Phospho-flow fixation buffer and Perm-Buffer III (BD biosciences) according to the manufacturer’s protocol. Intracellular phospho-protein staining was performed using fluorochrome-conjugated antibodies, pAKT (pS473)-Alexa Fluor 647 (MB89-61) or pERK1/2 (pT202/pY204)-Alexa Fluor 647 (20 A). […] Flow cytometry was performed on a FACS Fortessa (Becton, Dickinson and Co.) using FACSDiVa software, and data analyzed using FlowJo software (Tree Star). […]
# Generation of the MPL^W515L mutant MF mouse model was similar to previously described methods. […] Development of MF was evaluated by spleen volumes using MRI beginning ~14 d following bone marrow transplantation (BMT) as outlined below, continuing weekly until end of the study. […]
# Sequence of MEK1 (Q02750 whole entry): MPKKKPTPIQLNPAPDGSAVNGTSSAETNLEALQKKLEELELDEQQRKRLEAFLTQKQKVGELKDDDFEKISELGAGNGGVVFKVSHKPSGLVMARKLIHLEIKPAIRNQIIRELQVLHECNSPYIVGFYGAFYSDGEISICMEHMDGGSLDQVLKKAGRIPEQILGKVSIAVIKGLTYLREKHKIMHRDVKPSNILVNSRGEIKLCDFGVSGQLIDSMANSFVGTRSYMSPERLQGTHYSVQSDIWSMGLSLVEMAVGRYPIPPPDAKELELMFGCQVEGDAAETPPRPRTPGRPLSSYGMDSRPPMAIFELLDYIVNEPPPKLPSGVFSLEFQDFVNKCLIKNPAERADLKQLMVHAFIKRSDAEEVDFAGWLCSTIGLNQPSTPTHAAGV
smiles,measurement,setting,value
"O=C(NOCCOCCOCCOCCC(=O)N1CCN(c2cnc3ccc(-c4cnc(Cl)c(NS(=O)(=O)c5ccc(F)cc5)c4)cc3n2)CC1)c1ccc(F)c(F)c1Nc1ccc(I)cc1F [LP-182, N-(2-(2-(2-(3-(4-(7-(6-chloro-5-((4-fluorophenyl)sulfonamido)pyridin-3-yl)quinoxalin-2-yl)piperazin-1-yl)-3-oxopropoxy)ethoxy)ethoxy)ethoxy)-3,4-difluoro-2-((2-fluoro-4-iodophenyl)amino)benzamide]",activity at 0.000495 µM,"[1]; MEK1, 0.495 nM",91%
same,Kinase Activity (%),"[1]; MEK1, 0.495 nM, 0.000495 µM",94% and 100% (2×) and 98% (2×) and 87%
same,activity at 0.00152 µM,"[1]; MEK1, 1.52 nM",89%
same,Kinase Activity (%),"[1]; MEK1, 1.52 nM, 0.00152 µM",94% (2×) and 102% (2×)
same,activity at 0.00457 µM,"[1]; MEK1, 4.57 nM",92%
same,Kinase Activity (%),"[1]; MEK1, 4.57 nM, 0.00457 µM",77% and 86% and 84% and 81%
same,Kinase Activity (%),"[1]; MEK1, 41.2 nM, 0.0412 µM",47% and 49% and 69% and 72% and 79% and 86% and 76% and 73%
same,Kinase Activity (%),"[1]; MEK1, 123 nM, 0.123 µM",26% and 22% and 46% and 50% and 53% and 57% and 54% and 49%
same,Kinase Activity (%),"[1]; MEK1, 1110 nM, 1.11 µM",0% and 3% (3×) and 8% (2×) and 9% (2×) and 5% and 12%
same,Kinase Activity (%),"[1]; MEK1, 3330 nM, 3.33 µM",-1% and 1% (2×) and 2% (2×) and 3% (3×) and 4% and 0%
same,Kinase Activity (%),"[1]; MEK1, 10000 nM, 10 µM",0% and -2% (2×) and 8% and 9% and 4% and 2% and -1% and 3% (2×)
same,activity at 0.000495 µM,"[1]; MEK1, concentration 0.495 nM",90%
same,Kinase Activity (%),"[1]; MEK1, concentration 0.495 nM, 0.000495 µM",100% (2×) and 98% (2×)
same,activity at 0.00152 µM,"[1]; MEK1, concentration 1.52 nM",99%
same,Kinase Activity (%),"[1]; MEK1, concentration 1.52 nM, 0.00152 µM",94% (2×) and 102% (2×)
same,activity at 0.00457 µM,"[1]; MEK1, concentration 4.57 nM",95%
same,activity at 0.0412 µM,"[1]; MEK1, concentration 41.2 nM",65%
same,activity at 0.123 µM,"[1]; MEK1, concentration 123 nM",43%
same,activity at […],"[1]; MEK1, concentration 370 nM",15%
same,Kinase Activity (%),"[1]; MEK1, concentration 1110 nM, 1.11 µM",9% (2×) and 3% (3×) and 8% (2×)
same,Kinase Activity (%),"[1]; MEK1, concentration 3330 nM, 3.33 µM",2% (2×) and 1% (2×) and 3% (3×)
same,Kinase Activity (%),"[1]; MEK1, concentration 10000 nM, 10 µM",3% (2×) and -2% (2×)
same,active ERK1/2 level in splenocytes,[2],reduced active AKT and ERK1/2 levels to those comparable to healthy control mice
